Measurements published in BindingDB's records for doi:10.1021/jm900130m (Universita Del Piemonte Orientale, 2009).

Tests used:
[1] = biological target: Transient receptor potential cation channel subfamily V member 1 (Homo sapiens, UniProt Q8NER1); experiment: TRPV1 Channel Activity Assay
Method: The effect of the substances on Ca2+ influx was determined by using HEK-293 cells stably overexpressing recombinant human TRPV1 cDNA. The cells were loaded with Fluo-4, a selective intracellular fluorescent probe for Ca2+. Experiments were carried out by measuring cell fluorescence before and after the addition of the test compounds at various concentrations. Agonist activity was determined in comparison to the maximum Ca2+ influx due to the application of 4 uM ionomycin. EC50 values were determined as the concentration of test substances required to produce half-maximal increases in [Ca2+]i. All determinations were at least performed in triplicate. Curve fitting (sigmoidal dose-response variable slope) and parameter estimation were performed with GraphPad Prism (GraphPad Software Inc., San Diego, CA).

Cannabinoid receptor 2 = Cannabinoid receptor 2 (Homo sapiens, UniProt P34972); experiment: CB Receptor Radioligand Binding Assay (Ki)
Method: IC50 values for test compounds were determined from nonlinear regression analysis of data collected from ligand displacement experiments. The inhibition constant (Ki) was calculated from IC50 value by the Cheng and Prusoff equation.

Transient receptor potential cation channel subfamily V member 1, sequence (Q8NER1 whole entry): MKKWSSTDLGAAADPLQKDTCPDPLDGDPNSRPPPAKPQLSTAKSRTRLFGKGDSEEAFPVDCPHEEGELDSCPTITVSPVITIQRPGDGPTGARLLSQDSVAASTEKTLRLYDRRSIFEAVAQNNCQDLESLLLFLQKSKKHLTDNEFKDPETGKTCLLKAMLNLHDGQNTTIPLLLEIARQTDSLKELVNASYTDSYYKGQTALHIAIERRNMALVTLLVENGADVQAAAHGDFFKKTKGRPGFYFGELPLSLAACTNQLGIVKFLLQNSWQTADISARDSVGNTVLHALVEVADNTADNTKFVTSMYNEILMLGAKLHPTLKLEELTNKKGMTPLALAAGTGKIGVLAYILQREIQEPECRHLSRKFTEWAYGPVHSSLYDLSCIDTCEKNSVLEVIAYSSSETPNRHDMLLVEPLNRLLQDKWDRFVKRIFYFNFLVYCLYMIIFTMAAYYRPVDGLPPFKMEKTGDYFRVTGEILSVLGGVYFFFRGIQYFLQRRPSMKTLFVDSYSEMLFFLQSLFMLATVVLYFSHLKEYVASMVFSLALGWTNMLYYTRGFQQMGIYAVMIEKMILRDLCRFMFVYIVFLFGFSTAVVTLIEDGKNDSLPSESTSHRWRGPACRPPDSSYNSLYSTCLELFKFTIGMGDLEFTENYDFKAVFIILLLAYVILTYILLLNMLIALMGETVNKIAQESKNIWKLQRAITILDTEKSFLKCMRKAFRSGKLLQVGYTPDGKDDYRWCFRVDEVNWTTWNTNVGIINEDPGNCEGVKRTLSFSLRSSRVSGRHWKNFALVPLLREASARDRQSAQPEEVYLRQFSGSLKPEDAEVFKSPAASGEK
Cannabinoid receptor 2, sequence (P34972 whole entry): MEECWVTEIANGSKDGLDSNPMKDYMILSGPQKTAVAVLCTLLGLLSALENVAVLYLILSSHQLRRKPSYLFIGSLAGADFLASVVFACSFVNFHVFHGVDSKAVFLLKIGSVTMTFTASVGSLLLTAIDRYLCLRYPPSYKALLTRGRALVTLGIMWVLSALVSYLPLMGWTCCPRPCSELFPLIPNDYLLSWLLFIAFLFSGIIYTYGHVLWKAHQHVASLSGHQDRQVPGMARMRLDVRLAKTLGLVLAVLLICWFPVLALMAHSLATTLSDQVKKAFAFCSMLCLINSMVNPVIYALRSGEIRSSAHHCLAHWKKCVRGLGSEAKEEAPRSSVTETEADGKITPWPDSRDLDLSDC

Row | Structure (SMILES) | EC50 [1] [nM] | Ki (Cannabinoid receptor 2) [nM]
1 | CCCCCCCC/C=C\CCCCCCCC(=O)N[C@H]1C[C@H]1O [cyclopropanolamide, 14b] | 180 | 1630
2 | CCCCCCCC/C=C\CCCCCCCC(=O)N[C@H]1C[C@@H]1O [cyclopropanolamide, 11b] | 19 | 2420
